The record followed here is EP3807270B1, “NOVEL HETEROARYL HETEROCYCLYL COMPOUNDS FOR THE TREATMENT OF AUTOIMMUNE DISEASE” (F. Hoffmann-La Roche AG, priority 2018, dated 2019).

One data set addresses T1, CYP2D6 (Homo sapiens, UniProt P10635).
T1 construct: tissue BD-Gentest 452117; host or cells: human liver microsomes
The experiment in a line: CYP inhibition assay in human liver microsome. Format: in vitro ADME. The note with it: human liver microsomes, probe dextromethorphan, 10µM test compound, dextromethorphan substrate, <0: not or weak inhibitor, read-out: CYP 2D6 inhibition %@10µM. Summed up:
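HLM mixed with CYP2D6 substrate, preincubated 10 min at 37 °C, started with NADPH regenerating system and run 10 min at 37 °C before acetonitrile quench. Metabolite measured by RapidFire MS/MS against D3-dextrorphan internal standard. % inhibition scaled between DMSO and concentrated-inhibitor controls.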
For orientation: Microsomes from liver hold many membrane-bound enzymes, among them those of drug oxidation.

For the next data set, the target named is T2, hTLR9 (Homo sapiens, UniProt Q9NR96).
T2 sequence (Q9NR96 26-1032): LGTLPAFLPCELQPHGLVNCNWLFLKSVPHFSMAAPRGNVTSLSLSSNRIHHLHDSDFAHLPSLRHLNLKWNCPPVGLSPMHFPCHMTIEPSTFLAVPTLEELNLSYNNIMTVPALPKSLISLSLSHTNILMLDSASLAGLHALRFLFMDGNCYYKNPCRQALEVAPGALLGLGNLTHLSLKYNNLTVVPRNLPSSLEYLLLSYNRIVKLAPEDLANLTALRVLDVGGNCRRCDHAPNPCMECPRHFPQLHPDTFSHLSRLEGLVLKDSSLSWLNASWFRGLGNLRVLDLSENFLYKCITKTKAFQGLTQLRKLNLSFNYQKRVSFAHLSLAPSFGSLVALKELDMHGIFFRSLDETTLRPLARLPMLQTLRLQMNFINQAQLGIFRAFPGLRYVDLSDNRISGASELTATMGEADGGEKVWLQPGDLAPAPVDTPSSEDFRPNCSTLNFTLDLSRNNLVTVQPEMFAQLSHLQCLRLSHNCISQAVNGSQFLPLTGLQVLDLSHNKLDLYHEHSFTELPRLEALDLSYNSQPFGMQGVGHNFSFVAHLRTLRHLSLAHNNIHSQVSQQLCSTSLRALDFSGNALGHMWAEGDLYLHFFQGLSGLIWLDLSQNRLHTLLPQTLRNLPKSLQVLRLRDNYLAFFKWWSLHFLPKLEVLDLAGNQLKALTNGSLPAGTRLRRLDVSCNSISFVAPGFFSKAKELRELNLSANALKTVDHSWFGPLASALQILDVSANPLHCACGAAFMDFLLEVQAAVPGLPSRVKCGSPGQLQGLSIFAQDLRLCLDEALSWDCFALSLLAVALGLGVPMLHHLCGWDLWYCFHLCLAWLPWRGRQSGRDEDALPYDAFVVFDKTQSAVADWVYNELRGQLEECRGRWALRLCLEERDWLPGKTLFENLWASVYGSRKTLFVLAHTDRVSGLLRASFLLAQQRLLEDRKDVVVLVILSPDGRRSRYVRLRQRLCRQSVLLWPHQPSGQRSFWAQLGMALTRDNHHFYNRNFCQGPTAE
The experiment in a line: HEK293-Blue-hTLR-9 cells assay (SEAP reporter, ODN2006 stimulation). The format is cell-based. Also on record: host or cells: HEK293 (HEK-Blue). To be noted: HEK293-Blue-hTLR9 cells, ODN2006, 20 hrs; read-out: HEK/hTLR9 IC50. Summed up: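 HEK293-Blue-hTLR9 cells (250,000-450,000 cells/mL) in DMEM with 10% FBS were treated with serially diluted compound (1% DMSO final) plus ODN2006 for 20 hrs at 37 °C. Supernatant SEAP activity was measured with QUANTI-Blue substrate for 2 hrs at 37 °C, reading absorbance at 620-655 nm.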

Molecules are shown by their SMILES.

T1 sequence (P10635 whole entry): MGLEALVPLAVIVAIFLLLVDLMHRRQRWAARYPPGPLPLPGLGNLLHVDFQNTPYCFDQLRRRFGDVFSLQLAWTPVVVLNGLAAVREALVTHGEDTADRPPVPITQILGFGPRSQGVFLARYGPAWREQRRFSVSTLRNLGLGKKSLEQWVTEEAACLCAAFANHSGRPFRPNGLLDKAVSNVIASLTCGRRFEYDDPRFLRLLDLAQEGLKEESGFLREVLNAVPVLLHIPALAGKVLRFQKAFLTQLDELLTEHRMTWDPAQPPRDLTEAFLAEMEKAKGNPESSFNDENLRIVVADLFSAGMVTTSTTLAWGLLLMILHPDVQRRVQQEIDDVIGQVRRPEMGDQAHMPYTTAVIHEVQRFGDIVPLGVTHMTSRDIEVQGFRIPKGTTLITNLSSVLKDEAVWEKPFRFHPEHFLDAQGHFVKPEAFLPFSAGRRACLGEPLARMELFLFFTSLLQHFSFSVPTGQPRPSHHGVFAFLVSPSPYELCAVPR

`C[C@@H]1CN(c2ccc(C#N)c3ncccc23)C[C@H](CN2CCN(c3ccc4c(c3)C(O)CNC4)CC2)O1` (stereo partly drawn) [Example 22, 5-[(2S,6R)-2-[[4-(4-hydroxy-1,2,3,4-tetrahydroisoquinolin-6-yl)piperazin-1-yl]methyl]-6-methyl-morpholin-4-yl]quinoline-8-carbonitrile]: the inhibition (as a rule, the change of the read-out against control, counted positive when it falls) at 10 min, 10 µM at CYP2D6 stood at 6%. Also, the IC50 on hTLR9 was 45 nM.
Taken in the same sequence, the figures for `C[C@@H]1CN(c2ccc(C#N)c3ncccc23)C[C@H](CN2CCN(c3cnc4c(c3)CCNC4)CC2)O1` [Example 23, 5-[(2R,6S)-2-methyl-6-[[4-(5,6,7,8-tetrahydro-1,7-naphthyridin-3-yl)piperazin-1-yl]methyl]morpholin-4-yl]quinoline-8-carbonitrile] were 3.5% and 59 nM.
The corresponding values for `C[C@@H]1CN(c2ccc(C#N)c3ncccc23)C[C@H](CN2CCN(c3ccc4c(c3)CCNC4CO)CC2)O1` (stereo partly drawn) [Example 24, 5-[(2S,6R)-2-[[4-[1-(hydroxymethyl)-1,2,3,4-tetrahydroisoquinolin-6-yl]piperazin-1-yl]methyl]-6-methyl-morpholin-4-yl]quinoline-8-carbonitrile] are -9.5% and 46 nM.
Turning to `C[C@@H]1CN(c2ccc(C#N)c3nccnc23)C[C@H](CN2CCN(c3cnc4c(c3)CNC4)CC2)O1` [Example 25, 8-[(2S,6R)-2-[[4-(6,7-dihydro-5H-pyrrolo[3,4-b]pyridin-3-yl)piperazin-1-yl]methyl]-6-methyl-morpholin-4-yl] quinoxaline-5-carbonitrile], the inhibition at 10 min, 10 µM on CYP2D6 was -8%. The IC50 on hTLR9 was determined as 90 nM.
The corresponding values for `C[C@@H]1CN(c2ccc(C#N)c3ncccc23)C[C@H](CN2CCN(c3ncc4c(n3)CCNC4)CC2)O1` [Example 29, 5-[(2R,6S)-2-methyl-6-[[4-(5,6,7,8-tetrahydropyrido[4,3-d]pyrimidin-2-yl)piperazin-1-yl]methyl]morpholin-4-yl]quinoline-8-carbonitrile] are 16.5% and 122 nM.
The corresponding values for `C[C@@H]1CN(c2ccc(C#N)c3ncccc23)C[C@H](CN2CCN(c3ccc4c(n3)CNC4)CC2)O1` [Example 30, 5-[(2S,6R)-2-[[4-(6,7-dihydro-5H-pyrrolo[3,4-b]pyridin-2-yl)piperazin-1-yl]methyl]-6-methyl-morpholin-4-yl] quinoline-8-carbonitrile] are 17.5% and 41 nM.
For the compound `C[C@@H]1CN(c2ccc(C#N)c3ncccc23)C[C@H](CN2CCC(Nc3ncc4c(n3)CNC4)C2)O1` (stereo partly drawn) [Example 32, 5-[(2S,6R)-2-[[3-(6,7-dihydro-5H-pyrrolo[3,4-d]pyrimidin-2-ylamino)pyrrolidin-1-yl]methyl]-6-methyl-morpholin-4-yl]quinoline-8-carbonitrile], the inhibition at 10 min, 10 µM on CYP2D6 was 17.5%. Moreover, the IC50 on hTLR9 turned out to be 99 nM.
For `C[C@@H]1CN(c2ccc(C#N)c3ncccc23)C[C@H](CN2CCCN(c3nc4c(s3)CNCC4)CC2)O1` [Example 33, 5-[(2R,6S)-2-methyl-6-[[4-(4,5,6,7-tetrahydrothiazolo[5,4-c]pyridin-2-yl)-1,4-diazepan-1-yl]methyl]morpholin-4-yl]quinoline-8-carbonitrile], the inhibition at 10 min, 10 µM on CYP2D6 is -10.5%. For the same compound, the IC50 on hTLR9 is 90 nM.
Taken in the same sequence, the figures for `C[C@@H]1CN(c2ccc(C#N)c3ncccc23)C[C@H](CN2CCN(c3ccc4c(n3)CCN(C)C4)CC2)O1` [Example 34, 5-[(2R,6S)-2-methyl-6-[[4-(6-methyl-7,8-dihydro-5H-1,6-naphthyridin-2-yl)piperazin-1-yl]methyl]morpholin-4-yl]quinoline-8-carbonitrile] were 4% and 86 nM.
The corresponding values for `C[C@@H]1CN(c2ccc(C#N)c3ncccc23)C[C@H](CN2CC3(CCN3c3ccc4c(n3)CCNC4)C2)O1` [Example 36, 5-[(2R,6S)-2-methyl-6-[[1-(5,6,7,8-tetrahydro-1,6-naphthyridin-2-yl)-1,6-diazaspiro[3.3]heptan-6-yl]methyl]morpholin-4-yl]quinoline-8-carbonitrile] are 13.5% and 45 nM.
The corresponding values for `C[C@@H]1CN(c2ccc(C#N)c3ncccc23)C[C@H](CN2CCCN(c3ncc4c(n3)CCNC4)CC2)O1` [Example 39, 5-[(2R,6S)-2-methyl-6-[[4-(5,6,7,8-tetrahydropyrido[4,3-d]pyrimidin-2-yl)-1,4-diazepan-1-yl]methyl]morpholin-4-yl]quinoline-8-carbonitrile] are 8.5% and 90 nM.
Consider `C[C@@H]1CN(c2ccc(C#N)c3ncccc23)C[C@H](CN2CCN(c3cnc4c(n3)CNCC4)CC2)O1` [Example 40, 5-[(2R,6S)-2-methyl-6-[[4-(5,6,7,8-tetrahydropyrido[3,4-b]pyrazin-3-yl)piperazin-1-yl]methyl]morpholin-4-yl]quinoline-8-carbonitrile], for which the inhibition at 10 min, 10 µM on CYP2D6 was 8%. The IC50 at hTLR9 stood at 123 nM.
Taken in the same sequence, the figures for `CC1NCc2ncc(N3CCN(C[C@H]4CN(c5ccc(C#N)c6ncccc56)C[C@@H](C)O4)CC3)cc21` (stereo partly drawn) [Example 41, 5-[(2R,6S)-2-methyl-6-[[4-(5-methyl-6,7-dihydro-5H-pyrrolo[3,4-b]pyridin-3-yl)piperazin-1-yl]methyl]morpholin-4-yl]quinoline-8-carbonitrile] were -2% and 60 nM.
For `C[C@@H]1CN(c2ccc(C#N)c3ncccc23)C[C@H](CN2CC3(C2)CN(c2ccc4c(c2)CCNC4)CCO3)O1` [Example 44, 5-[(2R,6S)-2-methyl-6-[[8-(1,2,3,4-tetrahydroisoquinolin-6-yl)-5-oxa-2,8-diazaspiro[3.5]nonan-2-yl]methyl]morpholin-4-yl]quinoline-8-carbonitrile], the inhibition at 10 min, 10 µM at CYP2D6 came to 4%. For the same compound, the IC50 at hTLR9 was 85 nM.
Taken in the same sequence, the figures for `C[C@@H]1CN(c2ccc(C#N)c3ncccc23)C[C@H](CN2CC3(C2)CN(c2ccc4c(n2)CNCC4)CCO3)O1` [Example 45, 5-[(2R,6S)-2-methyl-6-[[8-(5,6,7,8-tetrahydro-1,7-naphthyridin-2-yl)-5-oxa-2,8-diazaspiro[3.5]nonan-2-yl]methyl]morpholin-4-yl]quinoline-8-carbonitrile] were 9% and 113 nM.
As for `C[C@@H]1CN(c2ccc(C#N)c3ncccc23)C[C@H](CN2CC3(C2)CN(c2cnc4c(c2)CCNC4)CCO3)O1` [Example 46, 5-[(2R,6S)-2-methyl-6-[[8-(5,6,7,8-tetrahydro-1,7-naphthyridin-3-yl)-5-oxa-2,8-diazaspiro[3.5]nonan-2-yl]methyl]morpholin-4-yl]quinoline-8-carbonitrile], at CYP2D6, the inhibition at 10 min, 10 µM worked out at 12%. The IC50 at hTLR9 is 114 nM.
With `C[C@@H]1CN(c2ccc(C#N)c3ncccc23)C[C@H](CN2CC3(C2)CN(c2cnc4c(c2)CNCC4)CCO3)O1` [Example 47, 5-[(2R,6S)-2-methyl-6-[[8-(5,6,7,8-tetrahydro-1,6-naphthyridin-3-yl)-5-oxa-2,8-diazaspiro[3.5]nonan-2-yl]methyl]morpholin-4-yl]quinoline-8-carbonitrile], the inhibition at 10 min, 10 µM on CYP2D6 is -21.5%. Further, on hTLR9, the IC50 amounted to 72 nM.
The corresponding values for `C[C@@H]1CN(c2ccc(C#N)c3ncccc23)C[C@H](CN2CC3(C2)CN(c2cc4c(cn2)CCNC4)CCO3)O1` [Example 48, 5-[(2R,6S)-2-methyl-6-[[8-(5,6,7,8-tetrahydro-2,6-naphthyridin-3-yl)-5-oxa-2,8-diazaspiro[3.5]nonan-2-yl]methyl]morpholin-4-yl]quinoline-8-carbonitrile] are -12% and 56 nM.
